Tests used:
[1] = test system: planktonic P. aeruginosa PA14; assay: Planktonic growth (growth curves, colony counts), PA14; assay type: cell-based, Pseudomonas aeruginosa; settings: growth curves and/or colony counts, presence vs absence of compound, at IC50 or as stated
P. aeruginosa PA14 = assay: Static biofilm inhibition assay (crystal violet), PA14; assay type: cell-based, Pseudomonas aeruginosa
Experimental: (§1) An overnight culture of the bacterial strain being screened against was subcultured at an OD600 of 0.1 into the media used (listed below with strain) and then pipetted into test tubes along with a predetermined concentration of our compound of interest. Test tubes were then poured into tilted Petri dishes and 100 μL of media, strain and compound were then transferred into 96-well PVC microtiter plates. These microtiter plates were then covered, wrapped in Saran™ Wrap polyethylene film (S.C. Johnson, Racine, Wis.) and allowed to incubate at 37° C. for 24 hours. After that time, the medium was discarded and the plates were thoroughly washed with water. The remaining biofilm that was formed during incubation was stained with 100 μL of a 0.1% crystal violet solution and allowed to incubate at room temperature for 30 minutes. After 30 minutes, the crystal violet was discarded and washed thoroughly again with water. The remaining crystal violet that had stained the biofilm in the inside walls of the 96-well PVC plates was solubilized with 200 μL of 95% ethanol. The quantification of biofilm formation was accomplished by transferring 125 μL of the ethanol solution into a polystyrene microtiter dish, which was read by spectrophotometry (A540). After the background has been subtracted from each row, a percent inhibition can be calculated by dividing the amount of crystal violet in wells that contained compound by the amount of crystal violet in wells that contained bacteria only. Each concentration reported during the course of this study was repeated two to five times with each of those biofilm inhibition assays being done in 6 replicates each.
(§2) An overnight culture of the wild type strain was subcultured at an OD600 of 0.10 into LBNS along with a predetermined concentration of the small molecule to be tested for biofilm inhibition. Samples were then aliquoted (100 μL) into the wells of a 96-well PVC microtiter plate. The microtiter dishes were covered and sealed before incubation under stationary conditions at 37° C. for 24 hours. After that time, the medium was discarded and the plates thoroughly washed with water. The wells were then inoculated with a 0.1% aqueous solution of crystal violet (100 μL) and allowed to stand at ambient temperature for 30 minutes. Following another thorough washing with water the remaining stain was solubilized with 200 μL of 95% ethanol. Biofilm inhibition was quantitated by measuring the OD540 for each well by transferring 125 μL of the ethanol solution into a fresh polystyrene microtiter dish for analysis.
(§3) To examine each compound's ability to inhibit the formation of Pseudomonas aeruginosa biofilms, PAO1 and PA14 were employed as the target bacterial strains using a crystal violet reporter assay. G. A. O'Toole, R. Kolter, Mol. Microbiol. 1998, 28, 449. All compounds were initially screened at 500 μM for anti-biofilm activity.
as §2, with “for 24 hours, After that” for “for 24 hours. After that”, “violet (100 pt) and allowed” for “violet (100 μL) and allowed”

[2] = test system: Acinetobacter Baumannii (ATCC 19606); assay: Static biofilm inhibition assay (crystal violet), A. baumannii; assay type: cell-based; settings: ATCC19606, inhibition of biofilm formation, 24 hours, read-out: IC50 value for inhibition against A. baumannii
Experimental: as §1, with “The remaining crystal violet that had stained the biofilm in the inside walls of the 96-well PVC plates was solubilized with 200 μL of 95% ethanol.” left out, “Each concentration reported during the course of this study was repeated two to five times with each of those biofilm inhibition assays being done in 6 replicates each.” left out

A. baumannii biofilms = assay: Biofilm dispersion, A. baumannii; assay type: cell-based, Acinetobacter baumannii; settings: range of concentrations, FIG. 21
Experimental: Finally, each of the TAGE derivatives were assayed for their ability to disperse pre-formed biofilms. […] While not wishing to be bound by any particular theory, it is hypothesized that the failure of these derivatives to effectively disperse biofilms, in contrast to TAGE, might be due to impeded diffusion through the biofilm matrix.
(§4) From a clinical perspective, the ability to disperse an established biofilm can be an important consideration, because a physician is typically faced with treating an established or chronic biofilm infection. DHS was assessed for its ability to disperse existing biofilms of P. aeruginosa, A. baumannii, and B. bronchiseptica. Each bacterial strain was allowed to form biofilms for 24 hours in the absence of compound. At the end of 24 hours, the media and planktonic bacteria were removed and the remaining biofilm was treated either with media alone or media containing DHS.

[3] = test system: B. bronchiseptica biofilms (strain Rb50); assay: Static biofilm inhibition assay (crystal violet), RB50; assay type: cell-based; settings: Bordetella bronchiseptica, inhibition of biofilm formation, 24 hours
Experimental: as §1, with “The remaining crystal violet that had stained the biofilm in the inside walls of the 96-well PVC plates was solubilized with 200 μL of 95% ethanol.” left out, “Each concentration reported during the course of this study was repeated two to five times with each of those biofilm inhibition assays being done in 6 replicates each.” left out

[4] = test system: planktonic P. aeruginosa PAO1; assay: Planktonic growth (growth curves, colony counts), PAO1; assay type: cell-based, Pseudomonas aeruginosa; settings: growth curves and/or colony counts, presence vs absence of compound, at IC50 or as stated
From the text: To answer the question of whether the compounds were antibiotics or true inhibitors of biofilm formation, we tested the ability of both compounds to inhibit growth of planktonic P. aeruginosa. Growth was quantitated by measuring optical density at 600 nm. […]

A. baumannii = assay: Planktonic growth (growth curves, colony counts), A. baumannii; assay type: cell-based, Acinetobacter baumannii; settings: growth curves and/or colony counts
Experimental: Screens of the three compounds were performed against A. baumannii and B. bronchiseptica.

[5] = test system: existing biofilms of P. aeruginosa; assay: Biofilm dispersion, P. aeruginosa (Example 6); assay type: cell-based, Pseudomonas aeruginosa; settings: range of concentrations, FIG. 21
Experimental: as §4

[6] = test system: PDO300, mucoid strain of P. aeruginosa; assay: Static biofilm inhibition assay (crystal violet), PDO300; assay type: cell-based; settings: Pseudomonas aeruginosa, 24 h, read-out: IC50 against PDO300
Experimental: PDO300 was employed to assay if TAGE would inhibit the formation of mucoid biofilms. PDO300 is a well-characterized mucoid strain of P. aeruginosa that is genotypically identical to PAO1 except for the mucA mutation that converts the bacterium to the mucoid phenotype (Mathee et al., Microbiology, 1999, 145, 1349), PDO300 biofilms were allowed to develop in a 96-well plate in the absence or presence of TAGE. After 24 hours, the media and planktonic bacteria were removed, the wells were washed vigorously, and crystal violet was added. Crystal violet stains the bacterial biofilm that forms on the inside wall of the well at the air/liquid interface, which, following ethanol solubilization, can be quantitated by spectrophotometry (A540) (O'Toole et al., Mol. Microbiol., 1998, 30, 295).
An overnight culture of the bacterial strain being screened against was subcultured at an OD600 of 0.1 into the media used (listed below with strain) and then pipetted into test tubes along with a predetermined concentration of our compound of interest. Test tubes were then poured into tilted Petri dishes and 100 μL of media, strain and compound were then transferred into 96-well PVC microtiter plates. […] The quantification of biofilm formation was accomplished by transferring 125 μL of the ethanol solution into a polystyrene microtiter dish, which was read by spectrophotometry (A540). […]

[7] = test system: existing biofilms of B. bronchiseptica; assay: Biofilm dispersion, B. bronchiseptica; assay type: cell-based, Bordetella bronchiseptica; settings: range of concentrations, FIG. 21
Experimental: as §4

PDO300 = assay: Planktonic growth (growth curves, colony counts), PDO300; assay type: cell-based, Pseudomonas aeruginosa; settings: growth curves and/or colony counts
[8] = test system: P. aeruginosa strain PAO1; assay: Static biofilm inhibition assay (crystal violet), PAO1; assay type: cell-based, Pseudomonas aeruginosa
Experimental: Each compound was assayed for the ability to inhibit the formation of P. aeruginosa biofilms. […] We employed a standard crystal violet reporter assay to assess for the formation of biofilms. Briefly, P. aeruginosa strain PAO1 was allowed to form biofilms in a multi-well plate in the absence or presence of our compounds. Planktonic (or free growing) bacteria were then removed, wells washed vigorously, and crystal violet added. Crystal violet stains the remaining bacteria which, following ethanol solubilization, can be quantitated by spectrophotometry (A540).
as §1, §2, §3
An overnight culture of the wild type strain was subcultured at an OD600 of 0.10 into LBNS along with a predetermined concentration of the small molecule to be tested for biofilm inhibition. Samples were then aliquoted (100 μL) into the wells of a 96-well PVC microtiter plate. The microtiter dishes were covered and sealed before incubation under stationary conditions at 37° C. for 24 hours, After that time, the medium was discarded and the plates thoroughly washed with water. […]

[9] = listed as DHS 23, hydrochloride
[10] = listed as DHS (7), hydrochloride

SMILES: Cl.Cn1c(C(=O)NCCCc2c[nH]c(N)n2)cc(Br)c1Br [Compound 23, 4,5-dibromo-1-methyl-pyrrole-2-carboxylic acid [3-(2-amino-1H-imidazol-4-yl)-propyl]-amide hydrochloride]
- microbicidal effect on PA14 planktonic growth (in words) [1, 9]: no reduction
- microbicidal effect on PA14 planktonic growth (in words) [1, 10]: not due to a bactericidal effect
- % Biofilm Inhibition at 500 μM vs PA14 (P. aeruginosa PA14; 500 μM, hydrochloride): >95%
- inhibition at 500 µM (P. aeruginosa PA14; Pseudomonas aeruginosa, PA14, 24 h): > 95%
- IC50 (P. aeruginosa PA14; Pseudomonas aeruginosa, PA14, inhibition of biofilm formation, crystal violet, 24 hours): 111 ± 8 µM
- IC50 [2]: 110 µM
- dispersion of existing A. baumannii biofilms (in words) (A. baumannii biofilms): able to successfully disperse
- IC50 [3]: 238 µM
- microbicidal effect on PAO1 planktonic growth (in words) [4, 9]: no reduction
- microbicidal effect on PAO1 planktonic growth (in words) [4, 10]: not due to a bactericidal effect
- microbicidal effect on A. baumannii planktonic growth (in words) (A. baumannii): no microbicidal effects
- dispersion of existing P. aeruginosa biofilms (in words) [5]: able to successfully disperse
- IC50 [6]: 115 µM
- dispersion of existing B. bronchiseptica biofilms (in words) [7]: able to successfully disperse
- bactericidal activity against PDO300 (in words) (PDO300): lacked significant bactericidal activity
- % Biofilm Inhibition at 500 μM vs PAO1 ([8]; 500 μM, hydrochloride): >95%
- inhibition at 500 µM ([8]; Pseudomonas aeruginosa, PAO1): > 95%
- IC50 ([8]; Pseudomonas aeruginosa, PAO1, inhibition of biofilm formation, crystal violet, 24 hours): 51 ± 9 µM
- fold more active than both TAGE and CAGE ([8]; from IC50 values against PAO1 and PA14): approximately 2 fold

Reference: patent publication US9084423B2, “Inhibition of bacterial biofilms with imidazole derivatives” (North Carolina State University, priority 2007, dated 2015)
